Values joined by “and” are separate entries in the source; they are usually repeats but may differ in a detail not shown here. Equal values may be shown once. Read-outs that look alike come from different tables or passages of the source.
Tests used:
[1] = system: passive cutaneous anaphylaxis (PCA); test: Anti-passive cutaneous anaphylaxis (PCA) activity in rats (Test Example 2); assay type: in vivo, Wistar strain rats; conditions: Rattus norvegicus, N 10; for inhibition in vivo at 10 mg/kg: 10 mg/kg PO; for inhibition in vivo at 50 mg/kg: 50 mg/kg PO; for inhibition in vivo at 100 mg/kg: 100 mg/kg PO; for inhibition in vivo at 200 mg/kg: 200 mg/kg PO
Protocol: (§1) Wistar strain rats were sensitized with ovalbumin using aluminium hydroxide gel and Bordetella Pertussis vaccine as adjuvants. Dilutions of antiserum (16-fold and 32-fold) obtained by collecting blood samples 14 days later were administered subcutaneously in the dorsal skin of the rats of the same strain at the rate of 0.1 ml per spot, and the rats were grown for 48 hours. One hour after peroral administration of the sample solution, a mixture of antigen ovalbumin and Evans-blue dye was administered to the tail venous of the animal according to the ordinary procedure. Thirty minutes later, the animals were sacrificed by exsanguination, and the areas of blue spots (long diameter×short diameter) eliciting on the portion of the antiserum injection at the dorsal skin were measured to obtain the rate of inhibition based on the average value shown by the control animals.

[2] = Acute toxicity LD50 in mice (Test Example 8); conditions: mouse, in vivo, one week, Probit method
Protocol: ddy-Strain mice (male) and Wistar strain rats were used to obtain LD50 values.
According to the ordinary procedure, suspension or solution of test sample was administered to the animals. From the number of the died animals until one week after the administration, LD50 values were obtained by Probit method.

[3] = system: passive cutaneous anaphylaxis (PCA); test: Anti-passive cutaneous anaphylaxis activity (PCA) in rats (Test Example 9); assay type: in vivo; conditions: Rattus norvegicus, po, 10 animals
Protocol: as §1
This test was conducted in a manner similar to that in Test Example 2, except that the dilutions of antiserum were 12- and 24-folds.

[4] = Acute toxicity LD50 in ICR mice (Test Example 11); conditions: mouse, in vivo, one week, Provit method
Protocol: As test animals, ICR-strain mice (male) were used. According to the conventional procedure, suspension or solution of test sample was administered to the animals. From the number of the died animals until one week after the administration, LD50 values were obtained by Provit method.

[5] = system: mast cell in abdominal cavity; test: Release of histamine by dextran (T-500), mast cell in abdominal cavity (Test Example 12); assay type: cell-based, rat
Protocol: (§2) Collection of mast cells in abdominal cavity and thoracic cavity and sensitizing of cells were conducted in similar manners to those in Test Example 10, respectively.
(§3) The sample solution was treated with 105 microgramms/ml phosphatidylserin PBS solution (0.5 ml) and incubated at 37° C. for 30 minutes, followed by addition of 25 mg/ml dextran (T-500) PBS solution (0.5 ml) and further incubation for 15 minutes.
(§4) This is conducted in a manner similar to that in Test Example 10.

[6] = system: Mast cell in thoracic cavity; test: Release of histamine by dextran (T-500), mast cell in thoracic cavity (Test Example 12); assay type: cell-based, rat
Protocol: as §2, §3, §4

[7] = system: mast cell in abdominal cavity; test: Release of histamine by antigen DNP-Ascaris, mast cell in abdominal cavity (Test Example 12); assay type: cell-based, rat; conditions: 10^-3 M; stronger than DSCG
Protocol: as §2
(1) Preparation of DNP-Ascaris antiserum was conducted in manner similar to that in Test Example 6.
This is conducted in amanner similar to that in Test Example 10.
as §4

[8] = system: anaphylaxis reaction to inhalated antigen; test: Antigen inhalation test on passive sensitized guinea pig (experimental asthma model); assay type: in vivo; conditions: 200 mg/kg po
Protocol: The test compound and Tranilast were respectively suspended at the time of use in 5% gum arabic solution containing 0.1% Tween 80 at the rate of 40 mg/ml, and were perorally administered at the rate of 0.5 ml per 100 g body weight of the animal.
DSCG was dissolved at the time of use in physiological saline solultion for injection at the rate of 5.0 mg/ml, and was intravenously injected at the rate of 0.1 ml per 100 g body weight of the animal.
Anti-ovalbumin rabbit serum diluted with physiological saline solution for injection so as tc contain anti-ovalbumin rabbit antibody at the rate of 0.187 mg N/ml was intravenously administered to guinea pig at the rate of 0.1 ml per 100 g of body weight and it was passively sensitized.
Twenty-four hours later, the suspension of the compound prepared in (1) above was perorally or intravenously administered to the animal. The animal was put in the inhalation chamber one hour after the administration in case of the peroral administration and five minutes after the administration in case of the intravenous administration, and 2% physiological saline solution of antigen ovalbumin was inhaled by spraying. Over 10 minutes' period from the time immediately after the forced inhalation, the time until its fall attributed to anaphylaxis reaction was recorded, and the numbers of alive and dead animals after lapse of 10 minutes were also counted.

SRS-A = test: Anti-SRS-A activity, contraction of guinea pig ileum by crude SRS-A solution; design: key to Anti-SRS-A activity (rate of inhibition against the contraction amount): % inhibition of SRS-A-induced ileum contraction
Protocol: A piece of lungs of guinea pig sensitized with ovalbumin was incubated with antigen ovalbumin at 37° C. for 20 minutes to obtain a supernatant solution, which was used as a crude SRS-A solution.
A piece of ileum of normal guinea pig was suspended in Magnus tube filled with Tyrode's solution and incubated with the solution of drug to be examined for a certain duration, and the contraction of the piece of ileum induced by adding the above crude SRS-A solution was determined on the basis of the contraction rate attributed to hystamine dihydrochloride 10^-6 M. The rate of inhibition against the contraction amount was taken as anti-SRS-A activity.

[9] = system: mast cell in abdominal cavity; test: Inhibition of histamine release from mast cell in abdominal cavity in rat (Test Example 6); assay type: cell-based; conditions: for activity at 1000 µM / activity at 100 µM / activity at 10 µM / activity at 1 µM: Rattus norvegicus, Mast cell, 20 min, DNP-Ascaris 20 microgramms/ml, read-out: Amount of histamine released from peritoneal mast cell (Control = 100); for activity at 1000 µM: 10^-3 M; for activity at 100 µM: 10^-4 M; for activity at 10 µM: 10^-5 M; for activity at 1 µM: 10^-6 M
Protocol: Examination was made on the activity of inhibition of histamine release from mast cell by antigen-antibody reaction.
Swine ascaris extract solution was dinitrophenylated according to Aisen's method, dialysed, and lyophilized. The product was administered as antigen together with Bordetella Pertussis vaccine subcutaneously into the foot pad of rat. Eight days later, blood was taken to obtain antiserum. The PCA titer for this antiserum in rat was 32 to 64.
Heparin-containing PBS was injected intraperitoneally to rat which was sacrificed by exsanguination, after which the abdomen was well massaged to collect the injected PBS, which was purified by washing several times by centrifugation. The number of the mast cells contained in the solution was determined and adjusted to the designed concentration. As to method of sensitizing the cell, the above cell suspension (6 ml, 2×10^6 cells/ml) was treated with anti-DNP-Ascaris rat serum (PCA titer 32) (6 ml) and the mixture was incubated in the presence of hepain at 37° C. for 2 hours.
To the sensitized mast cell suspension the solution of the drug to be tested was added, and the mixture was preliminarily incubated at 37° C. for 12 minutes. After addition of the solution of antigen DNP-Ascaris (final concentration, 20 microgramms/ml), the mixture was further incubated for 20 minutes. After completion of the reaction, the solution was centrifuged (500 G, 10 min.) under a low temperature to obtain a supernatant solution. Histamine contained in the supernatant solution was subjected to fluorometry by crthophthalaldehyde method.

hyaluronidase = conditions: known from the literature; cited from earlier work
[10] = system: mast cell in abdominal cavity; test: Histamine release by antigen DNP-Ascaris, mast cell in abdominal cavity (Test Example 10); assay type: cell-based, rat; conditions: 10^-3 M
Protocol: (§5) Examination was made cn the activity of inhibition of histamine release from mast cell by antigen-antibody reaction.
(§6) Preparation of DNP-Ascaris antiserum was conducted in a manner similar to that in Test Example 6.
(§7) Heparin-containing PBS was injected into the abdominal cavity of rat which was sacrificed by bleeding, after which the abdomen was well massaged, and then peritoneal exudate was sampled. The same liquid was also injected into the thoracic cavity, and after shaking the breast for several minutes, the thoracic cavity liquid was sampled, which was purified by washing several times by centrifugation. The number of the mast cells contained in this liquid was measured and adjusted to a designated concentration. (Mast cells, 8.0×10^4 cells/ml).
(§8) To the cell suspension (4 ml, 9×10^5 cells/ml), anti-DNP-Ascaris rat serum (PCA titer, 32) (4 ml) was added, and the mixture was incubated in the presence of heparin at 37° C. for 2.5 hours. To the solution, 70 microgramms/ml phosphatidylserin PBS solution (0.5 ml) was added and the mixture was incubated at 37° C. for 12 minutes, after which 140 microgramms/ml antigen DNP-Ascaris PBS solution (0.5 ml) was added and the mixture was incubated further for 20 minutes.
After completion of the reaction, the reaction liquid was centrifuged (500 G, 10 min.) to obtain supernatant solution, and histamin in the supernatant solution was subjected to fluorometry by orthophthalal aldehyde method. The released amount of histamin in the control was shown as 100.

[11] = system: Mast cell in thoracic cavity; test: Histamine release by antigen DNP-Ascaris, mast cell in thoracic cavity (Test Example 10); assay type: cell-based; conditions: Rattus norvegicus, 20 min, 10^-3 M, read-out: released amount of histamin, Mast cell in thoracic cavity (control shown as 100)
Protocol: as §5, §6, §7
as §8, with “minutes. […]” for “minutes.”

[12] = read-out: Average Inhibition Rate (%) Antiserum Dilution: × 16
[13] = read-out: Average Inhibition Rate (%) Antiserum Dilution: × 32
[14] = read-out: Inhibition, Anti-serum Dilution: × 12
[15] = read-out: Inhibition, Anti-serum Dilution: × 24
[16] = intravenous, read-out: LD50 Value (mg/kg of body weight) Intravenous administration
[17] = po, peroral, read-out: LD50 Value (mg/kg of body weight) Peroral administration

Work on CCOC(=O)c1ccccc1NC(=O)C(=Cc1ccccc1)C(=O)Nc1ccccc1C(=O)OCC [Compound 14, Diethyl 2,2'-[(1,3-dioxo-2-phenylmethylene-1,3-propanediyl)diimino]bisbenzoate] yielded an inhibition in vivo at 10 mg/kg [1, 12] of 38.6%, an inhibition in vivo at 10 mg/kg [1, 13] of 38.7% and an inhibition in vivo at 50 mg/kg [1, 12] of 41.9%. The inhibition in vivo at 50 mg/kg [1, 13] was 72.2%, the inhibition in vivo at 100 mg/kg [1, 12] was 59.3% and the inhibition in vivo at 100 mg/kg [1, 13] was 85.1%. For the same compound, the LD50 at 168 h ([2]; iv, read-out: LD50 value (mg/kg body weight) Mouse i.v.) was 299 mg/kg, the LD50 at 168 h ([2]; po, read-out: LD50 value (mg/kg body weight) Mouse p.o.) was greater than 10000 mg/kg and the inhibition in vivo at 10 mg/kg [3, 14] was 29.8%. The inhibition in vivo at 10 mg/kg [3, 15] was 31.3%, the inhibition in vivo at 50 mg/kg [3, 14] was 36.7% and the inhibition in vivo at 50 mg/kg [3, 15] was 40.5%. For the same compound, the LD50 at 168 h [4, 16] was 347 mg/kg, the “histamine release inhibiting activity, dextran (T-500) (in words)” value ([5]; 10^-4 and 10^-3 M, almost the same as DSCG) was “histamine release inhibiting activities” and the activity at 1000 µM ([5]; Rattus norvegicus, Mast cell, 0.25 h, 10^-3 M, read-out: Effect on release of histamine by dextran (T-500), Mast cell in abdominal cavity (control 100)) was 40.2%. The activity at 100 µM ([5]; Rattus norvegicus, Mast cell, 0.25 h, 10^-4 M, read-out: Effect on release of histamine by dextran (T-500), Mast cell in abdominal cavity (control 100)) was 94.5%, the “Effect on release of histamine by dextran (T-500), Mast cell in thoracic cavity (control 100)” value ([6]; 10^-4, 15 min) was 55.6 and the activity at 1000 µM ([6]; Rattus norvegicus, Mast cell, 0.25 h, 10^-3 M, read-out: Effect on release of histamine by dextran (T-500), Mast cell in thoracic cavity (control 100)) was 42.2%. For the same compound, the “histamine release inhibiting activity, antigen DNP-Ascaris (in words)” value [7] was “histamine release inhibiting activity”.

For COc1ccc(/C=C/C(=O)Nc2ccccc2C(=O)O)cc1OC [Tranilast, reference compound], the inhibition in vivo at 200 mg/kg [1, 12] was 1.8%, the inhibition in vivo at 200 mg/kg [1, 13] was 15.8% and the “Extended rate (%)” value [8] was -3.0%. The “preventive effect on anaphylaxis reaction (in words)” value [8] was “no activity”, the “Average time for falling Mean ± S.E.” value ([8]; N 5) was 150.8 ± 14.8 s and the “Required time (sec.) for falling and Number of death (#), single animals” value ([8]; N 5, observed 10 minutes, # shows death) was 116 s and 126 s and 141 s and 181 s and 190 s. For the same compound, the “Anti-SRS-A activity (rate of inhibition against the contraction amount)” value (SRS-A; 10^-3 M) was 0, the “Anti-SRS-A activity (rate of inhibition against the contraction amount)” value (SRS-A; 10^-4 M) was 0 and the “Anti-SRS-A activity (rate of inhibition against the contraction amount)” value (SRS-A; 10^-5 M) was 0. The “Anti-SRS-A activity (rate of inhibition against the contraction amount)” value (SRS-A; 10^-6 M) was 0, the “anti-SRS-A activity (in words)” value (SRS-A; compound 11 at a concentration of 10^-3 M) was “no activity” and the activity at 1000 µM [9] was 29%. The activity at 100 µM [9] was 67%, the activity at 10 µM [9] was 95% and the activity at 1 µM [9] was 95%. The inhibition in vivo at 200 mg/kg [3, 14] was 2.1%, the inhibition in vivo at 200 mg/kg [3, 15] was 10.7% and the “effect on hyaluronidase activity (in words)” value (hyaluronidase) was “inhibit hyaluronidase activity”.

For COC(=O)c1ccccc1NC(=O)C(=Cc1ccccc1)C(=O)Nc1ccccc1C(=O)OC [Compound 51], the inhibition in vivo at 10 mg/kg [3, 14] was 28.1%, the inhibition in vivo at 10 mg/kg [3, 15] was 30.3% and the inhibition in vivo at 50 mg/kg [3, 14] was 34.2%. The inhibition in vivo at 50 mg/kg [3, 15] was 37.5%, the “inhibition of release of histamine from mast cells in abdominal and thoracic cavity (in words)” value [10] was “action of inhibiting release of histamine” and the activity at 1000 µM ([10]; Rattus norvegicus, Mast cell, 20 min, read-out: released amount of histamin, Mast cell in abdominal cavity (control shown as 100)) was 50.4%. The activity at 1000 µM [11] was 75.1%, the LD50 at 168 h [4, 17] was no less than 8000 mg/kg and the LD50 at 168 h [4, 16] was 238 mg/kg.

In the case of polymixin B, the “effect on hyaluronidase activity (in words)” value (hyaluronidase) is given as “activate hyaluronidase”.

For O=c1oc(C(=Cc2ccccc2)c2nc3ccccc3c(=O)o2)nc2ccccc12 [Compound 52, 2,2'-phenylethenilidenebis(3,1-benzoxazine-4-one)], the inhibition in vivo at 10 mg/kg [1, 12] was 20.6%, the inhibition in vivo at 10 mg/kg [1, 13] was 29.4% and the inhibition in vivo at 50 mg/kg [1, 12] was 37.9%. For the same compound, the inhibition in vivo at 50 mg/kg [1, 13] was 38.3%, the inhibition in vivo at 100 mg/kg [1, 12] was 45% and the inhibition in vivo at 100 mg/kg [1, 13] was 47.1%. For the same compound, the activity at 1000 µM [9] was 21%, the activity at 100 µM [9] was 60% and the activity at 10 µM [9] was 68%. For the same compound, the activity at 1 µM [9] was 70%, the “inhibition of release of histamine from the mast cell (in words)” value ([9]; even at the low concentration of 10^-6 M) was “inhibiting release of histamine” and the LD50 at 168 h [4, 17] was greater than 10000 mg/kg. For the same compound, the LD50 at 168 h [4, 16] was 319 mg/kg.

Reference: patent publication US4822791A, “Pharmaceutical compositions of-2,2-1,1-[bis-2,2'-(3,1-benzoxazin-4-one)9 ethylenes” (priority 1984, dated 1989)
